Experimental data as given in paper PMC2764408 (Biochemistry, 2008).

Key:
Type in all cases: binding
[1] = target: T1, monomeric sarcosine oxidase (MSOX) (Bacillus sp. B-0618, UniProt P40859, K266M); experiment: absorption spectral titration of charge transfer band
T1 sequence (P40859 2-390 K266M): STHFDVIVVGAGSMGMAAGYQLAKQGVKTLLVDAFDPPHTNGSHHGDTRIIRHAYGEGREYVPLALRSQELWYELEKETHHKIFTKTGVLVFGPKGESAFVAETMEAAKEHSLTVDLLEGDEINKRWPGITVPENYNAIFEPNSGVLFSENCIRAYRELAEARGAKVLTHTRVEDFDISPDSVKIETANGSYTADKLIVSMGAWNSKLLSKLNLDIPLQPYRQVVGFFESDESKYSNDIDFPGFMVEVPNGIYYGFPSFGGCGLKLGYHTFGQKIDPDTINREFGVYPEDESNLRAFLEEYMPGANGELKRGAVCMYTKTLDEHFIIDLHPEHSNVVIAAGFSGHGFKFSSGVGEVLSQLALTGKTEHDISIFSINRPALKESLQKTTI

[2] = target: T2, monomeric sarcosine oxidase (MSOX) (Bacillus sp. B-0618, UniProt P40859, K266R); experiment: as above
T2 sequence (P40859 2-390 K266R): T1 sequence (P40859 2-390 K266M)

[3] = target: T1, monomeric sarcosine oxidase (MSOX); experiment: stopped-flow diode array, initial charge transfer absorbance
[4] = target: T2, monomeric sarcosine oxidase (MSOX); experiment: as above

| Structure (SMILES) | Kd [1] [mM] | Kd [2] [mM] | Kd [3] [mM] | Kd [4] [mM] |
| --- | --- | --- | --- | --- |
| CSCC(=O)O [methylthioacetate] | 13.3 ± 0.3 | 6.9 ± 0.1 |  |  |
| CNCC(=O)O [sarcosine, N-methylglycine] |  |  | 58 ± 10 | 34 ± 1 |
